# According to US20070116781A1, “Hydrogen Cyanamide Pesticide Formulations” (priority 2005, published 2007):
# Legend:
# all weeds = assay: Herbicidal activity, cyanamide and propionic acid, pre-emergence, covered pots; type: in vivo
# Experimental: (§1) The weeds used in these tests were grown from a standard weed seed pack of common annual and perennial weeds representing an extreme weed situation. The weeds included yellow nutsedge (Cyperus esculentus), crabgrass (Digitaria sanguinalis), pigweed (Amaranthus spp.), momingglory (Ipomoea spp.), sicklepod (Senna obtusifolia) and other annual weeds. Observations of the effects on the weed population as a whole were made, and individual observations were made for yellow nutsedge, crabgrass, and sicklepod. Stock solutions of hydrogen cyanamide at 1.25% by weight and propionic acid at 5.0% by weight, both in water, were prepared, the hydrogen cyanamide from a phosphate-buffered 50% aqueous solution. […] Data analyses were performed in the same manner as Example 1. The results expressed in weeds per pot are listed in Table V for all weeds, Table VI for yellow nutsedge, Table VII for crabgrass, and Table VIII for sicklepod, all at various application rates for both hydrogen cyanamide and propionic acid.
# yellow nutsedge = assay: as above; type: in vivo, Cyperus esculentus
# Experimental: as §1
# crabgrass [1] = assay: as above; type: in vivo, Digitaria sanguinalis
# Experimental: as §1
# sicklepod = assay: as above; type: in vivo, Senna obtusifolia
# Experimental: as §1
# crabgrass [2] = assay: Herbicidal activity, cyanamide and citric acid, pre-emergence, covered pots; type: in vivo, Digitaria sanguinalis
# Experimental: (§2) The weeds used in these tests were grown from a standard weed seed pack of common annual and perennial weeds representing an extreme weed situation. The weeds included crabgrass (Digitaria sanguinalis), yellow nutsedge (Cyperus esculentus), […] (Ipomoea spp.), pigweed (Amaranthus spp.), and other annual weeds. Observations of the effects on the weed population as a whole were made, and individual observations were made for crabgrass, yellow nutsedge, sicklepod, morningglory, and pigweed. Stock solutions of hydrogen cyanamide at 1.25% by weight and citric acid at 5.0% by weight, both in water, were prepared, the hydrogen cyanamide from a phosphate-buffered 50% aqueous solution. […] Data analyses were performed in the same manner as Example 1. The results expressed in weeds per pot are listed in Table XIV for all weeds, Table XV for crabgrass, Table XVI for yellow nutsedge, Table XVII for sicklepod, Table XVIII for morningglory, and Table XIX for pigweed, all at various application rates for hydrogen cyanamide, with and without citric acid.
# morningglory = assay: as above; type: in vivo, Ipomoea spp.
# Experimental: as §2
# [3] = 8 d after treatment, cyanamide 75 mg/kg soil
# [4] = 8 d after treatment, cyanamide 150 mg/kg soil
# [5] = 14 d after treatment, cyanamide 75 mg/kg soil
# [6] = 14 d after treatment, cyanamide 150 mg/kg soil
# [7] = 20 d after treatment, cyanamide 75 mg/kg soil
# [8] = 20 d after treatment, cyanamide 150 mg/kg soil
# [9] = 27 d after treatment, cyanamide 75 mg/kg soil
# [10] = 27 d after treatment, cyanamide 150 mg/kg soil
# [11] = 13 d after treatment, cyanamide 50 mg/kg soil
# [12] = 13 d after treatment, cyanamide 100 mg/kg soil
# [13] = 13 d after treatment, cyanamide 150 mg/kg soil
# [14] = 13 d after treatment, cyanamide 200 mg/kg soil
# [15] = 13 d after treatment, cyanamide 250 mg/kg soil
# [16] = 19 d after treatment, cyanamide 50 mg/kg soil
# [17] = 19 d after treatment, cyanamide 100 mg/kg soil
# [18] = 19 d after treatment, cyanamide 150 mg/kg soil
# [19] = 19 d after treatment, cyanamide 200 mg/kg soil
# [20] = 19 d after treatment, cyanamide 250 mg/kg soil
# [21] = 26 d after treatment, cyanamide 50 mg/kg soil
# [22] = 26 d after treatment, cyanamide 100 mg/kg soil
# [23] = 26 d after treatment, cyanamide 150 mg/kg soil
# [24] = 26 d after treatment, cyanamide 200 mg/kg soil
# [25] = 26 d after treatment, cyanamide 250 mg/kg soil
structure (smiles),measurement,setting,value
"N#CN [Cyanamide, hydrogen cyanamide]",Weeds Per Pot: All Weeds,all weeds; [3],2.6
same,Weeds Per Pot: All Weeds,all weeds; [4],0.6
same,Weeds Per Pot: All Weeds,all weeds; [5],8.7
same,Weeds Per Pot: All Weeds,all weeds; [6],4.6
same,Weeds Per Pot: All Weeds,all weeds; [7],15.1
same,Weeds Per Pot: All Weeds,all weeds; [8],9.9
same,Weeds Per Pot: All Weeds,all weeds; [9],17
same,Weeds Per Pot: All Weeds,all weeds; [10],13.3
same,Weeds Per Pot: Yellow Nutsedge,yellow nutsedge; [3],1.4
same,Weeds Per Pot: Yellow Nutsedge,yellow nutsedge; [4],0.1
same,Weeds Per Pot: Yellow Nutsedge,yellow nutsedge; [5],3.6
same,Weeds Per Pot: Yellow Nutsedge,yellow nutsedge; [6],2.4
same,Weeds Per Pot: Yellow Nutsedge,yellow nutsedge; [7],4.6
same,Weeds Per Pot: Yellow Nutsedge,yellow nutsedge; [8],3.4
same,Weeds Per Pot: Yellow Nutsedge,yellow nutsedge; [9],6.9
same,Weeds Per Pot: Yellow Nutsedge,yellow nutsedge; [10],6.1
same,Weeds Per Pot: Crabgrass,crabgrass [1]; [3],0
same,Weeds Per Pot: Crabgrass,crabgrass [1]; [4],0
same,Weeds Per Pot: Crabgrass,crabgrass [1]; [5],3.3
same,Weeds Per Pot: Crabgrass,crabgrass [1]; [6],0
same,Weeds Per Pot: Crabgrass,crabgrass [1]; [7],8.6
same,Weeds Per Pot: Crabgrass,crabgrass [1]; [8],3.7
same,Weeds Per Pot: Crabgrass,crabgrass [1]; [9],7.7
same,Weeds Per Pot: Crabgrass,crabgrass [1]; [10],4
same,Weeds Per Pot: Sicklepod,sicklepod; [3],1
same,Weeds Per Pot: Sicklepod,sicklepod; [4],0.4
same,Weeds Per Pot: Sicklepod,sicklepod; [5],1.9
same,Weeds Per Pot: Sicklepod,sicklepod; [6],2.1
same,Weeds Per Pot: Sicklepod,sicklepod; [7],2
same,Weeds Per Pot: Sicklepod,sicklepod; [8],2.7
same,Weeds Per Pot: Sicklepod,sicklepod; [9],2.4
same,Weeds Per Pot: Sicklepod,sicklepod; [10],3.1
same,Weeds Per Pot: Crabgrass,"crabgrass [2]; 9 d after treatment, cyanamide 50 mg/kg soil",4.3
same,Weeds Per Pot: Crabgrass,"crabgrass [2]; 9 d after treatment, cyanamide 100 mg/kg soil",1.6
same,Weeds Per Pot: Crabgrass,"crabgrass [2]; 9 d after treatment, cyanamide 150 mg/kg soil",0
same,Weeds Per Pot: Crabgrass,"crabgrass [2]; 9 d after treatment, cyanamide 200 mg/kg soil",0
same,Weeds Per Pot: Crabgrass,"crabgrass [2]; 9 d after treatment, cyanamide 250 mg/kg soil",0
same,Weeds Per Pot: Crabgrass,crabgrass [2]; [11],7.4
same,Weeds Per Pot: Crabgrass,crabgrass [2]; [12],2.9
same,Weeds Per Pot: Crabgrass,crabgrass [2]; [13],0.4
same,Weeds Per Pot: Crabgrass,crabgrass [2]; [14],0
same,Weeds Per Pot: Crabgrass,crabgrass [2]; [15],0
same,Weeds Per Pot: Crabgrass,crabgrass [2]; [16],7.3
same,Weeds Per Pot: Crabgrass,crabgrass [2]; [17],3.4
same,Weeds Per Pot: Crabgrass,crabgrass [2]; [18],0.6
same,Weeds Per Pot: Crabgrass,crabgrass [2]; [19],0
same,Weeds Per Pot: Crabgrass,crabgrass [2]; [20],0
same,Weeds Per Pot: Crabgrass,crabgrass [2]; [21],9.6
same,Weeds Per Pot: Crabgrass,crabgrass [2]; [22],5.6
same,Weeds Per Pot: Crabgrass,crabgrass [2]; [23],1.4
same,Weeds Per Pot: Crabgrass,crabgrass [2]; [24],0
same,Weeds Per Pot: Crabgrass,crabgrass [2]; [25],0
same,Weeds Per Pot: Morningglory,morningglory; [11],0
same,Weeds Per Pot: Morningglory,morningglory; [12],0
same,Weeds Per Pot: Morningglory,morningglory; [13],0
same,Weeds Per Pot: Morningglory,morningglory; [14],0
same,Weeds Per Pot: Morningglory,morningglory; [15],0
same,Weeds Per Pot: Morningglory,morningglory; [16],0
same,Weeds Per Pot: Morningglory,morningglory; [17],0
same,Weeds Per Pot: Morningglory,morningglory; [18],0
same,Weeds Per Pot: Morningglory,morningglory; [19],0
same,Weeds Per Pot: Morningglory,morningglory; [20],0
same,Weeds Per Pot: Morningglory,morningglory; [21],1.6
same,Weeds Per Pot: Morningglory,morningglory; [22],0.7
same,Weeds Per Pot: Morningglory,morningglory; [23],0.4
same,Weeds Per Pot: Morningglory,morningglory; [24],0.3
same,Weeds Per Pot: Morningglory,morningglory; [25],0.1
